According to patent US20250360117A1, “KCNT1 INHIBITORS COMPRISING AN ISOXAZOLE OR OXADIAZOLE CORE AND METHODS OF USE” (PRAXIS PRECISION MEDICINES, INC., priority 2022, published 2025):
Values joined by “and” are separate entries in the source; they are usually repeats but may differ in a detail not shown here. Equal values may be shown once. “Also recorded” adds a separate entry of the source.

Assays:
[1] = tested on: Cortical neurons from Kcnt1^R455H heterozygous mice; assay: Neuronal electrophysiology (current clamp and voltage clamp); type: cell-based, mouse; conditions: 10 μM, 20 minutes, vs vehicle control
Procedure: Cortical neurons from Kcnt1^R455H heterozygous mice were cultured and treated for 20 minutes with 10 μM of a compound of Formula (I-A) in DMSO. Presumed glutamatergic neurons were identified based on pyramidal morphology. Presumed GABAergic neurons were identified based on spindle morphology (and fast spiking pattern in the control recordings). Current clamp and voltage clamp recordings were performed on an Axon Multiclamp 700B amplifier. It was observed that pyramidal cells treated with vehicle control had many action potentials and mild adaptation in response to an inward current and large outward currents with depolarization.

[2] = tested on: Kcnt1^R455H/+ heterozygous mice; assay: Spontaneous interictal epileptiform discharges (spikes) on EEG; type: in vivo, mouse; conditions: 75 mg/kg s.c.
Excerpt: Infrequent spontaneous seizures also occur in some Kcnt1^R455H/+ heterozygous mice. This experiment sought to determine if administration of a compound of Formula (I-A) could reduce interictal spikes.
Animals: Adult Kcnt1^R455H/+ heterozygous mice on a C57/B6J background were used in all experiments disclosed in this example. Mice were approximately 2-3 months old. No preference was made for male or female animals. This strain is almost always stillborn in the homozygous condition. Seizures occur in some but not all heterozygotes, and interictal discharges occurs reliably.
Implantation of EEG electrodes: Mice were anesthetized with inhaled isoflurane 3-4% induction followed by approximately 1-1.5% maintenance titrated to effect. The head was fixed in a Kopf stereotactic apparatus, and the scalp was sterilized with povidone-iodine. The temperature was regulated to 37 degrees Celsius with a heating pad and rectal probe. Pre-emptive analgesia was provided with subgaleal bupivacaine 0.1% administered to form a wheal on the scalp, no more than 0.08 mL/10 g body weight. A linear midline scalp incision was made from behind the eyes to expose skull markers. Four holes were drilled (#60 drill bit): two anterior to the coronal suture (for left and right active recording), and two ⅔ of the way from the frontal to lambdoid suture (for reference and ground), […]. Screw electrodes were inserted in each burr hole (size W00-96×1.6 mm soldered to 15 mm insulated wire) and connected to a plastic pedestal (PlasticsOne E363). This assembly was then secured with dental cement. Meloxicam 5 mg/kg IP was given for post-operative analgesia.
Drug preparation for mice under EEG: A 7.5 mg/mL solution of a compound of Formula (I-A) was prepared on the day of injection in 10% DMSO/10% Solutol/80% deionized water. After at least 72 hours of baseline recording, the compound of Formula (I-A) was delivered subcutaneously at a dose of 75 mg/kg based on pre-surgical body weight.
EEG recording and analysis: Mice were held in a heated cage for at least 24 hours to recover before connection to the EEG recording system. Two-channel EEG with video was recorded using a Compumedics Grael EEG amplifier at 512 Hz sampling rate. The entire EEG was reviewed manually, and all interictal discharges and seizures were identified and marked. Video recordings were used to confirm epileptiform activity. Mice that had adequate recording quality and interictal spikes were selected for drug delivery. […] EEG recordings were manually scored by a reviewer blinded to treatment group. […]
EEG data were collected and reviewed in Compumedics Profusion. […] Average interictal discharge rates were determined in the baseline period and in the first, second, and third post-injection days (FIG. 3A). […]

[3] = Brain exposure in pups after maternal dosing (LC-MS/MS); type: in vivo, mouse; conditions: KCNT1^R455H/R455H pups, individual, brain collected when found deceased; maternal 75 mg/kg s.c.
Procedure: (§1) Whole brains were collected from all pups at 14 days after birth or at the time they are found deceased. Tails were genotyped through an automated system (Transnetyx) which was previously validated against PCR-based RFLP and sequencing. The whole brains were analyzed to determine brain exposure of Formula (I-A).
Bioanalysis of Brain Samples: Brain tissue was homogenized in 10:1 (v/wt) ratio using 10 mM PBS in methanol (2:1, v/v). 20 μL of samples were then precipitated with 200 μL IS solution (100 ng/mL Labetalol & 100 ng/mL Tolbutamide in ACN). The mixture was vortex-mixed and centrifuged at 4000 rpm for 15 min, 4° C. An aliquot of 100 μL supernatant was transferred to a sample plate and mixed with 100 μL water. The plate was shaken at 800 rpm for 10 minutes. 1 μL supernatant was then injected for LC-MS/MS analysis. A 1-3000 ng/ml PRX-0002904 calibration curve was prepared in mouse brain homogenate. Ultra-performance liquid chromatography (UPLC) parameters conditions are provided in Table 5 below, and the results are shown in Table 6 below.

[4] = tested on: Kcnt1^R455H/+ heterozygous mice; assay: PTZ-induced seizures in Kcnt1^R455H/+ heterozygous mice; type: in vivo, mouse; conditions: for Convulsive seizure latency: hazard ratio (drug/vehicle): log rank test; for Latency (s) to clonic or tonic seizures with loss of posture: individual animals, 1320 s = no seizure observed over the experiment, 75 mg/kg
Procedure: Kcnt1^R455H/+ heterozygous mice have increased sensitivity to PTZ seizure induction as compared with wild-type littermates. It was determined herein whether a compound of Formula (I-A) delivered prior to PTZ could delay the onset of convulsive seizures. Formula (I-A) (75 mg/kg s.c.) or a vehicle control was administered as a single dose. After a pretreatment period of one or two hours, mice were administered PTZ at a dose of 55 mg/kg for induction of seizures. Seizures were then scored based on behavior (no EEG). The latency to convulsive seizures was compared between groups to determine if the compound can prevent induced seizures.
Animals: Adult Kcnt1^R455H/+ heterozygous C57/B6J mice were used in this example. Mice were approximately 2 months old. No preference was made for male or female animals.
Drug preparation and delivery: A 7.5 mg/mL solution of a compound of Formula (I-A) was prepared on each day of injection in 10% DMSO/10% Solutol/80% deionized water with a volume sufficient for 10-20 animals. After at least 30 minutes of acclimatization to the testing environment, either the drug or vehicle control was delivered to each animal subcutaneously at a dose of 75 mg/kg based on current body weight.
PTZ injection and testing: Kcnt1^R455H/+ mice were tested with PTZ 55 mg/kg IP administered 1 or 2 hours after administration of either the compound of Formula (I-A) 75 mg/kg SC or vehicle control. Mice were then monitored continuously for 30 min by an observer blinded to treatment group. […] Latency to first clonic seizure with loss of posture was recorded and compared using the time to event analysis; log-rank Mantel-Cox in GraphPad Prism, p<0.05 was considered statistically significant. Seizures induced by PTZ were scored using a modified Racine scale, and the latency to convulsive seizures was compared between drug and vehicle groups (log rank test).
Behavior was scored live, and mice were recorded on video for later confirmation. Seizure severity scores were based on a recent report that is specifically designed for mouse PTZ experiments (Van Erum et al., Epilepsy and Behavior 2019 June; 95:51-55). Behavioral seizure scores were as follows: • −1: normal baseline • 0: whisker trembling • 1: behavioral arrest • 2: facial jerking • 3: neck jerks/myoclonus • 4: clonic (sitting) • 5: clonic, tonic-clonic (lying on belly) • 6: clonic, tonic-clonic (lying on side), and wild jumping • 7: tonic extension, possibly leading to respiratory arrest and death.
The time at which mice reached each stage was recorded. It was difficult to reliably ascertain grade 0-2 seizures without the aid of EEG, and there was inconsistency between reviewers for stage 3-5 seizures. As the clearest and most consistent (between examiners) scores were for stage 6-7, only these were used for reporting and analysis, although earlier scores were also recorded and saved. Latency to stage 6 or above seizures were plotted as survival curves, and differences were assessed with a long rank test. Scoring was cut off after 22 minutes post-PTZ administration (1320 seconds).

Kcnt1^R455H/R455H pups = assay: Survival of R455H homozygous pups after dosing of pregnant dams; type: in vivo, mouse; conditions: for Age survived before death or euthanasia: individual, dams 75 mg/kg s.c.
Procedure: Quraishi et. al. PMID 32081855. Without wishing to be bound by theory, it is thought that inhibition of mutant channel activity by KCNT1 inhibitors, such as the compound of Formula (I-A), during gestation might aid the survival of homozygous pups. Timed matings were performed on heterozygote breeding pairs, and a compound of Formula (I-A) was administered to the pregnant dams. No dosing of the live pups with Formula (I-A) was performed. All surviving and stillborn offspring that could be recovered were then genotyped, and brains were dissected and sent for measurement of Formula (I-A).
Breeding and dosing: Timed matings were performed on three KCNT1^R455H+×KCNT1^R455H/+ breeding pairs. Maternal injections of Formula (I-A) (75 mg/kg s.c.) were performed for four pregnant dams from three Kcnt1^R455H/+×Kcnt1^R455H/+ breeding pairs and one Kcnt1^+/+×Kcnt1^+/+ breeding pair. Starting approximately 13 days after the mating plug was identified, pregnant dams were administered 75 mg/kg Formula (I-A) (s.c.) every 3 days (as permitted) through the time of delivery. There was some variability in the days of administration as noted. Offspring were observed daily after delivery. The records of litters and treatment dates are shown below in Table 3. In round one, two doses of Formula (I-A) were delivered to each of the two dams from the Kcnt1^R455H/+×Kcnt1^R455H/+ crosses. […] In round two, three doses of Formula (I-A) were delivered to one dam from a Kcnt1^R455H/+×Kcnt1^R455H/+ cross.
as §1

C[C@H](NC(=O)c1cc(C(F)(F)F)nn1C)c1nc(-c2ccnc(C(F)(F)F)c2)no1 [Formula (I-A)]
action potential firing and outward currents, pyramidal cells (presumed glutamatergic) [1]: less sustained action potential firing and diminished outward currents
spike rates and outward currents, presumed GABAergic neurons [1]: markedly reduced spike rates and outward currents
interictal spike rate, first 24 hours after dosing vs preceding 72-hour baseline ([2]; N=12, p=0.005): marked per-animal reduction; also recorded: reduced
interictal spike rate, second day after dosing vs baseline ([2]; N=12, p=0.042): reduction persisted
interictal spike rate reduction, third day after dosing vs baseline ([2]; N=12, p>0.999): no longer evident
mice with a decrease in spike rates from baseline to Day 1 ([2]; baseline-adjusted spike rates): 11 out of 12
Brain Homogenate Concentration [3]: 15.2 ng/mL and 133 ng/mL and 109 ng/mL and 16.9 ng/mL
Brain Homogenate Concentration (ng/mL) [3]: BLQ
Final brain concentration [3]: 167 ng/g and 1458 ng/g and 1200 ng/g and 354 ng/g
Final brain concentration (ng/g) [3]: BLQ
animals with PTZ-induced convulsive seizures ([4]; 75 mg/kg s.c., 1 hour pretreatment before PTZ 55 mg/kg IP, 1/16 animals, vehicle 6/15 (40%)): 6%
Convulsive seizure latency: hazard ratio (drug/vehicle) ([4]; 75 mg/kg s.c., 1 hour pretreatment before PTZ 55 mg/kg IP): 0.13 (95% CI 0.03-0.58)
Convulsive seizure latency: hazard ratio (drug/vehicle) ([4]; 75 mg/kg s.c., 2 hours pretreatment before PTZ 55 mg/kg IP): 0.056 (95% CI 0.019-0.161)
mice with a seizure that reached stage 6-7 ([4]; 75 mg/kg s.c., 2 hours prior to PTZ 55 mg/kg IP, 1 out of 20 mice, vehicle 13 out of 20 (65%)): 5%
effect on PTZ-induced seizures (in words) ([4]; 75 mg/kg s.c., compared to vehicle-treated mice): anticonvulsant against PTZ-induced seizures; also recorded: significantly increased the latency to and reduced the incidence of PTZ-induced seizures
Latency (s) to clonic or tonic seizures with loss of posture ([4]; 75 mg/kg s.c. 1 hour prior to PTZ): 1320 s (14×) and 190 s and 647 s
Latency (s) to clonic or tonic seizures with loss of posture ([4]; 75 mg/kg s.c. 2 hours prior to PTZ): 1320 s (19×) and 294 s
Age survived before death or euthanasia (Kcnt1^R455H/R455H pups; Kcnt1^+/+ pups, 2 or 3 doses, brains collected at 14 days): 14 days
Age survived before death or euthanasia (Kcnt1^R455H/R455H pups; Kcnt1^R455H/+ pups, 2 or 3 doses, brains collected at 14 days): 14 days
Age survived before death or euthanasia (Kcnt1^R455H/R455H pups; Kcnt1^R455H/R455H pups, 2 doses (litters 1, 2) or 3 doses (litter 3), pups not dosed, dams given 2 doses): 1 days (3×) and 2 days
Age survived before death or euthanasia (Kcnt1^R455H/R455H pups; Kcnt1^R455H/R455H pups, 2 doses (litters 1, 2) or 3 doses (litter 3), pups not dosed, dams given 3 doses): 4 days
Kcnt1^R455H/R455H pups that survived multiple days (Kcnt1^R455H/R455H pups; maternal dosing 75 mg/kg s.c.): Two of five
survival of Kcnt1^R455H/R455H pups born alive (in words) (Kcnt1^R455H/R455H pups; round one: two doses 75 mg/kg s.c. to each of two dams, four pups born alive): three surviving for one day and one surviving two days
survival of Kcnt1^R455H/R455H pup (in words) (Kcnt1^R455H/R455H pups; round two: three doses 75 mg/kg s.c. to one dam, one pup): survived for four days
